Results on eight compounds are retold here after ChEMBL document CHEMBL1201862, “PubChem BioAssay data set” (2004).

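Exposure lasted 48 hours, with cells grown in 96-well plates and compounds tested at five concentrations. GI50 is the concentration that inhibits growth by half.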 Active and inactive are the calls of the source. No stated cut-off is given here; in the data, active = GI50 up to about 1.1 µM and inactive = higher.

Among the test systems are SNB-75; A498; NCI-H460; HCT-116; HL-60; MDA-MB-435; BT-549; MOLT-4; SF-268; MCF7; T47D; SK-MEL-28; M14; HCT-15; Malme-3M; SR; HOP-62; SK-OV-3; SK-MEL-5; SNB-19.
Common to all, as to experiment: DTP human tumour cell line panel, 48 h

As to `O=C(/C=C/c1ccccc1)NNC(=O)c1c(Cl)c(Cl)c(Cl)c(Cl)c1-c1nc2ccccc2[nH]1`, the GI50 in the experiment with SNB-75 is 18.2 µM (inactive); in the experiment with A498, 29.6 µM (inactive); in the experiment with NCI-H460, 23.7 µM (inactive); in the experiment on HCT-116, 22.1 µM (inactive); in the experiment on HL-60 it was 20.3 µM (inactive); in the experiment on MDA-MB-435 it was 15.7 µM (inactive). The GI50 is 28.2 µM (inactive) in the experiment on BT-549; 32.4 µM (inactive) in the experiment with MOLT-4; 51.8 µM (inactive) with SF-268; 24.2 µM (inactive) with MCF7; 18.4 µM (inactive) in the experiment on T47D; 39.5 µM (inactive) in the experiment with SK-MEL-28. The GI50 in the experiment with M14 is 25.8 µM (inactive); in the experiment with HCT-15, 24 µM; with Malme-3M, 26.5 µM (inactive); in the experiment with SR, 12.9 µM (inactive); in the experiment with HOP-62, 0.0442 µM (active); in the experiment on SK-OV-3, 0.0453 µM (active). For the same compound, the GI50 with SK-MEL-5 is 22 µM (inactive).
With `CC(C)OC(=O)OCSc1ccccc1/N=C/c1cccc([N+](=O)[O-])c1`, the GI50 in the experiment on SNB-75, with A498, in the experiment with NCI-H460, in the experiment on HCT-116, in the experiment on HL-60 and in the experiment on MDA-MB-435 was > 10 µM (inactive) throughout. Also, the GI50 in the experiment with BT-549, in the experiment with MOLT-4, with SF-268, in the experiment with MCF7, with T47D and with SK-MEL-28 was > 10 µM (inactive) throughout. Moreover, the GI50 in the experiment on M14 was > 10 µM (inactive); with HCT-15, > 10 µM; with Malme-3M, > 10 µM (inactive); in the experiment with SR, > 10 µM (inactive); with HOP-62, > 10 µM (inactive); in the experiment on SK-OV-3, > 10 µM (inactive). Also, the GI50 with SNB-19 and in the experiment with SK-MEL-5 was > 10 µM (inactive) each time.
Take `CCc1nc2c(c(N(C)C)c1C(=O)OC)CCc1ccccc1-2`: the GI50 with SNB-75 is 35.4 µM (inactive); in the experiment on A498, 20.2 µM (inactive); in the experiment on NCI-H460 it was 30.6 µM (inactive); in the experiment on HCT-116, 24.8 µM (inactive); with HL-60, 2.86 µM (inactive); with MDA-MB-435, 23.4 µM (inactive). For the same compound, the GI50 is 35 µM (inactive) in the experiment on BT-549; 4.14 µM (inactive) with MOLT-4; 47.1 µM (inactive) in the experiment on SF-268; 14.4 µM (inactive) in the experiment with MCF7; 11 µM (inactive) in the experiment with T47D; 38.5 µM (inactive) in the experiment on SK-MEL-28. Moreover, the GI50 is 24 µM (inactive) in the experiment with M14; 32.5 µM with HCT-15; 30.5 µM (inactive) in the experiment with Malme-3M; 11.4 µM (inactive) in the experiment with SR; 24.8 µM (inactive) in the experiment on HOP-62; 13.8 µM (inactive) in the experiment on SK-OV-3. The GI50 is 38.4 µM (inactive) in the experiment on SNB-19 and 17 µM (inactive) in the experiment on SK-MEL-5.
Regarding `COc1ccc2c3c1O[C@H]1[C@@H](O)CC[C@@]4(O)[C@@H](C2)N(C)CC[C@]314`, the GI50 is > 100 µM (inactive) with A498; > 100 µM (inactive) in the experiment on HCT-116; 2.93 µM (inactive) in the experiment with HL-60; > 100 µM (inactive) in the experiment with MDA-MB-435; > 100 µM (inactive) in the experiment with BT-549; > 100 µM (inactive) in the experiment on MOLT-4. For the same compound, the GI50 in the experiment with SF-268 was > 100 µM (inactive); in the experiment with MCF7 it was > 100 µM (inactive); in the experiment on T47D, > 100 µM (inactive); with SK-MEL-28, > 100 µM (inactive); in the experiment on M14, > 100 µM (inactive); in the experiment on HCT-15 it was > 100 µM. In addition, the GI50 with Malme-3M, with SR, with HOP-62, in the experiment on SK-OV-3, in the experiment with SNB-19 and with SK-MEL-5 was > 100 µM (inactive) in each case.
Consider `N=C(N)N/N=C\c1c(-c2cccc([N+](=O)[O-])c2)nc2sc(Cl)cn12`, for which the GI50 was 1.52 µM (inactive) in the experiment on SNB-75; 27.4 µM (inactive) in the experiment with A498; 2.67 µM (inactive) in the experiment on NCI-H460; 2 µM (inactive) with HL-60; 2.07 µM (inactive) in the experiment on MDA-MB-435; 2.39 µM (inactive) with BT-549. Moreover, the GI50 with MOLT-4 is 2 µM (inactive); with SF-268 it was 3.06 µM (inactive); in the experiment on MCF7, 2.61 µM (inactive); with T47D, 1.64 µM (inactive); in the experiment with SK-MEL-28, 2.21 µM (inactive); in the experiment with M14, 3.49 µM (inactive). For the same compound, the GI50 was 4.07 µM in the experiment with HCT-15; 2.42 µM (inactive) with Malme-3M; 0.61 µM (active) in the experiment on SR; 2.45 µM (inactive) in the experiment on SNB-19; 24.4 µM (inactive) in the experiment on SK-MEL-5.
Take `C[C@]12CC[C@H](OC3OC(CO)C(O)C(O)C3O)C[C@H]1CC[C@@H]1[C@@H]2CC[C@]2(C)[C@@H](C3=CCOC3=O)CC[C@]12O` (some centres undefined) [ACTODIGIN]: the GI50 was 6.84 µM (inactive) in the experiment with SNB-75; 5.48 µM (inactive) in the experiment on A498; 15.7 µM (inactive) in the experiment with HCT-116; 4.51 µM (inactive) in the experiment on HL-60; > 100 µM (inactive) with MDA-MB-435; > 100 µM (inactive) in the experiment on BT-549. Also, the GI50 is 8.2 µM (inactive) in the experiment on SF-268; 10.4 µM (inactive) with MCF7; > 100 µM (inactive) with T47D; 22.5 µM (inactive) in the experiment on SK-MEL-28; > 100 µM (inactive) in the experiment on M14; 22.7 µM in the experiment with HCT-15. The GI50 is 2.09 µM (inactive) in the experiment on Malme-3M; 2.96 µM (inactive) with SR; 0.787 µM (active) in the experiment with HOP-62; > 50 µM (inactive) in the experiment with SK-OV-3; 7.52 µM (inactive) in the experiment with SK-MEL-5.
As to `C#C[C@]1(O)CC[C@H]2[C@@H]3CCC4=C/C(=N/OCCN(C)C)CC[C@]4(C)[C@H]3CC[C@@]21C`, the GI50 in the experiment with SNB-75 is 30.1 µM (inactive); in the experiment on A498 it was 41.4 µM (inactive); in the experiment on NCI-H460 it was 21.8 µM (inactive); in the experiment on HCT-116 it was 25.6 µM (inactive); in the experiment on MDA-MB-435 it was 6.7 µM (inactive); in the experiment on BT-549, 65.9 µM (inactive). Moreover, the GI50 was 32.9 µM (inactive) in the experiment with MOLT-4; 49.5 µM (inactive) with SF-268; 25.1 µM (inactive) with MCF7; > 100 µM (inactive) in the experiment with T47D; 51.5 µM (inactive) with SK-MEL-28; 15 µM (inactive) in the experiment with M14. The GI50 with HCT-15 is 36.1 µM; with Malme-3M, 22.1 µM (inactive); in the experiment on SR it was 12.1 µM (inactive); in the experiment on HOP-62, 29.9 µM (inactive); with SK-OV-3 it was 40.1 µM (inactive); in the experiment with SNB-19 it was 27.9 µM (inactive). Further, the GI50 in the experiment on SK-MEL-5 is 13.2 µM (inactive).
As to `C[C@]12CCC3c4ccc(O)cc4CC[C@H]3C1CC(=O)NC2=O` (some centres undefined), the GI50 in the experiment on A498, in the experiment with NCI-H460, with HCT-116, with HL-60, in the experiment on MDA-MB-435 and in the experiment with BT-549 was > 10 µM (inactive) throughout. Moreover, the GI50 with MOLT-4, in the experiment on SF-268, with MCF7, with T47D, in the experiment with SK-MEL-28 and with M14 was > 10 µM (inactive) throughout. Besides, the GI50 was > 10 µM in the experiment on HCT-15; > 10 µM (inactive) in the experiment with Malme-3M; > 10 µM (inactive) in the experiment with SR; > 10 µM (inactive) with HOP-62; > 10 µM (inactive) in the experiment with SK-OV-3; > 10 µM (inactive) in the experiment with SNB-19. For the same compound, the GI50 in the experiment on SK-MEL-5 is > 10 µM (inactive).

As usually defined, the GI50 is the concentration that inhibits growth by half.
